Results taken from patent US9156831B2, “Chemical compounds” (ASTRAZENECA AB, priority 2013, dated 2015).

Tests used:
Experiment in all cases: Cell proliferation assay (MTS)
Type in all cases: cell-based, human
SNU449 = test system: SNU449
Description: (§1) The sensitivity of a panel of human cancer cell lines to the effects of compounds was determined in a standard proliferation assay.
(§2) Cells were plated in 96 well plates at densities of 1000-6000 cells per well in RPMI media containing 10% FBS. After incubation at 37° C. for 16 hours, various concentrations of compound were added to the assay plates. After incubation for an additional 72 h, the viable cells were determined by the addition of MTS reagent (Promega #3582) to each well for 2 h. […] The formazan product was then quantitated by absorbance at 490 nm, as an indicator of the relative number of live cells. In order to determine the GI50 (concentration at which growth of cells was inhibited by 50%) the relative number of cells present at the time of drug addition was determined by comparison with the MTS readout before the drug was added, and this value was subtracted from the 72 hr value of untreated cells as a measure of cell growth during the assay.

PANC89 = test system: PANC89
Description: as §1
(§3) Cells were plated in 96 well plates at densities of 1000-6000 cells per well in RPMI media containing 10% FBS. After incubation at 37° C. for 16 hours, various concentrations of compound were added to the assay plates. After incubation for an additional 72 h, the viable cells were determined by the addition of MTS reagent (Promega #3582) to each well for 2 h. MTS is a tetrazolium salt that is bioreduced by metabolically active cells in the presence of an electron coupling reagent to formazan. The formazan product was then quantitated by absorbance at 490 nm, as an indicator of the relative number of live cells. In order to determine the GI50 (concentration at which growth of cells was inhibited by 50%) the relative number of cells present at the time of drug addition was determined by comparison with the MTS readout before the drug was added, and this value was subtracted from the 72 hr value of untreated cells as a measure of cell growth during the assay.

CAMA1 = test system: CAMA1
Description: (§4) The sensitivity of a panel of human cancer cell lines to the effects of compounds was determined in a standard proliferation assay. Cell lines were sourced through the AstraZeneca Cell Bank.
as §3

HCC15 = test system: HCC15
Description: as §1, §3

EBC1 = test system: EBC1
Description: as §1, §2

SNU620 = test system: SNU620
Description: as §4, §3

RT4 = test system: RT4
Description: as §1, §2

JURKAT = test system: JURKAT
Description: as §1, §2

LK2 = test system: LK2
Description: as §4, §3

PC9 = test system: PC9
Description: as §1, §3

HCT15 = test system: HCT15
Description: as §1, §3

H23 = test system: H23
Description: as §4, §3

BEL7404 = test system: BEL7404
Description: as §4, §3

KG1 = test system: KG1
Description: as §1, §3

PAMC82 = test system: PAMC82
Description: as §4, §2

SKCO1 = test system: SKCO1
Description: as §1, §2

L363 = test system: L363
Description: as §1, §3

ASPC1 = test system: ASPC1
Description: as §1, §3

SW780 = test system: SW780
Description: as §1, §3

H522 = test system: H522
Description: as §1, §2

H647 = test system: H647
Description: as §1, §3

H2291 = test system: H2291
Description: as §4, §3

NUGC4 = test system: NUGC4
Description: as §1, §3

RERFLCAI = test system: RERFLCAI
Description: as §1, §3

HUPT4 = test system: HUPT4
Description: as §1, §3

SNU638 = test system: SNU638
Description: as §4, §3

SUM52PE = test system: SUM52PE
Description: as §1, §3

H358 = test system: H358
Description: as §1, §2

HS766T = test system: HS766T
Description: as §4, §3

MIAPACA2 = test system: MIAPACA2
Description: as §4, §3

PC3 = test system: PC3
Description: as §1, §3

SNU886 = test system: SNU886
Description: as §1, §2

CCK81 = test system: CCK81
Description: as §1, §3

MKN74 = test system: MKN74
Description: as §1, §3

H1703 = test system: H1703
Description: as §4, §3

N87 = test system: N87
Description: as §4, §2

HCC1937 = test system: HCC1937
Description: as §1, §3

KU1919 = test system: KU1919
Description: as §1, §3

REH = test system: REH
Description: as §1, §2

KP4 = test system: KP4
Description: as §4, §3

PANC1005 = test system: PANC1005
Description: as §1, §3

HLF = test system: HLF
Description: as §4, §3

MGHU3 = test system: MGHU3
Description: as §4, §3

[1] = Homo sapiens, Pancreas, PIK3CA WT
[2] = Homo sapiens, Stomach, PIK3CA WT
[3] = Homo sapiens, Blood/lymph, PIK3CA WT
[4] = Homo sapiens, Bladder, PIK3CA WT
[5] = Homo sapiens, Breast, PIK3CA WT

In the case of `CCn1nc(C2CCN(C(=O)CCO)CC2)nc1-c1cnc(N)c(-c2nnc(C(C)(C)C)o2)n1` [Example 3, 1-(4-(5-(5-amino-6-(5-tert-butyl-1,3,4-oxadiazol-2-yl)pyrazin-2-yl)-1-ethyl-1H-1,2,4-triazol-3-yl)piperidin-1-yl)-3-hydroxypropan-1-one], the Category (SNU449) is reported as “Resistant (resistant (GI50>1.0 μM))”, the GI50 (SNU449; Homo sapiens, SNU-449, Liver, PIK3CA WT) is reported as 5.41 µM and the Category (PANC89) is reported as “Resistant (resistant (GI50>1.0 μM))”. For the same compound, the GI50 (PANC89; [1]) was 1.62 µM, the Category (CAMA1) was “Resistant (resistant (GI50>1.0 μM))” and the GI50 (CAMA1; Homo sapiens, CAMA-1, Breast, PIK3CA WT) was 15.5 µM. The Category (HCC15) was “Resistant (resistant (GI50>1.0 μM))”, the GI50 (HCC15; Homo sapiens, Lung, PIK3CA WT) was 30 µM and the Category (EBC1) was “Resistant (resistant (GI50>1.0 μM))”. The GI50 (EBC1; Homo sapiens, EBC-1, Lung, PIK3CA WT) was 8.57 µM, the Category (SNU620) was “Resistant (resistant (GI50>1.0 μM))” and the GI50 (SNU620; [2]) was 3.14 µM. For the same compound, the Category (RT4) was “Resistant (resistant (GI50>1.0 μM))”, the GI50 (RT4; Homo sapiens, RT-4, Bladder, PIK3CA WT) was 8.94 µM and the Category (JURKAT) was “Resistant (resistant (GI50>1.0 μM))”. The GI50 (JURKAT; [3]) was 8.69 µM, the Category (LK2) was “Sensitive (sensitive (GI50<=1.0 μM))” and the GI50 (LK2; Homo sapiens, LK-2, Lung, PIK3CA WT) was 0.588 µM. The Category (PC9) was “Resistant (resistant (GI50>1.0 μM))”, the GI50 (PC9; Homo sapiens, PC-9, Lung, PIK3CA WT) was 30 µM and the Category (HCT15) was “Resistant (resistant (GI50>1.0 μM))”. For the same compound, the GI50 (HCT15; Homo sapiens, HCT-15, Colon, PIK3CA MUT) was 7.27 µM, the Category (H23) was “Resistant (resistant (GI50>1.0 μM))” and the GI50 (H23; Homo sapiens, NCI-H23, Lung, PIK3CA WT) was 12.3 µM. For the same compound, the Category (BEL7404) was “Resistant (resistant (GI50>1.0 μM))”, the GI50 (BEL7404; Homo sapiens, BEL-7404, Liver, PIK3CA WT) was 14.9 µM and the Category (KG1) was “Resistant (resistant (GI50>1.0 μM))”. For the same compound, the GI50 (KG1; Homo sapiens, KG-1, Blood/lymph, PIK3CA WT) was 6.59 µM, the Category (PAMC82) was “Resistant (resistant (GI50>1.0 μM))” and the GI50 (PAMC82; [2]) was 1.37 µM. The Category (SKCO1) was “Resistant (resistant (GI50>1.0 μM))”, the GI50 (SKCO1; Homo sapiens, SK-CO-1, Colon, PIK3CA WT) was 1.13 µM and the Category (L363) was “Sensitive (sensitive (GI50<=1.0 μM))”. The GI50 (L363; Homo sapiens, L-363, Blood/lymph, PIK3CA MUT) was 0.681 µM, the Category (ASPC1) was “Resistant (resistant (GI50>1.0 μM))” and the GI50 (ASPC1; [1]) was 1.74 µM. For the same compound, the Category (SW780) was “Resistant (resistant (GI50>1.0 μM))”, the GI50 (SW780; [4]) was 19.2 µM and the Category (H522) was “Resistant (resistant (GI50>1.0 μM))”. For the same compound, the GI50 (H522; Homo sapiens, NCI-H522, Lung, PIK3CA WT) was 15.6 µM, the Category (H647) was “Resistant (resistant (GI50>1.0 μM))” and the GI50 (H647; Homo sapiens, NCI-H647, Lung, PIK3CA WT) was 11.3 µM. The Category (H2291) was “Resistant (resistant (GI50>1.0 μM))”, the GI50 (H2291; Homo sapiens, NCI-H2291, Lung, PIK3CA WT) was 3.29 µM and the Category (NUGC4) was “Resistant (resistant (GI50>1.0 μM))”. For the same compound, the GI50 (NUGC4; Homo sapiens, NUGC-4, Stomach, PIK3CA WT) was 30 µM, the GI50 (RERFLCAI; Homo sapiens, Lung, PIK3CA WT) was 30 µM and the Category (RERFLCAI; RERFLCAI) was “Resistant (resistant (GI50>1.0 μM))”. The Category (HUPT4) was “Sensitive (sensitive (GI50<=1.0 μM))”, the GI50 (HUPT4; Homo sapiens, HuP-T4, Pancreas, PIK3CA WT) was 0.641 µM and the Category (SNU638) was “Resistant (resistant (GI50>1.0 μM))”. The GI50 (SNU638; Homo sapiens, SNU-638, Stomach, PIK3CA WT) was 8.22 µM, the Category (SUM52PE) was “Resistant (resistant (GI50>1.0 μM))” and the GI50 (SUM52PE; [5]) was 1.15 µM. The Category (H358) was “Resistant (resistant (GI50>1.0 μM))”, the GI50 (H358; Homo sapiens, NCI-H358, Lung, PIK3CA WT) was 4.64 µM and the Category (HS766T) was “Resistant (resistant (GI50>1.0 μM))”. The GI50 (HS766T; [1]) was 3.47 µM, the Category (MIAPACA2) was “Resistant (resistant (GI50>1.0 μM))” and the GI50 (MIAPACA2; Homo sapiens, MIA PaCa-2, Pancreas, PIK3CA WT) was 24.2 µM. The Category (PC3) was “Resistant (resistant (GI50>1.0 μM))”, the GI50 (PC3; Homo sapiens, PC-3, Prostate, PIK3CA WT) was 3.83 µM and the Category (SNU886) was “Resistant (resistant (GI50>1.0 μM))”. For the same compound, the GI50 (SNU886; Homo sapiens, SNU-886, Liver, PIK3CA WT) was 15.6 µM, the Category (CCK81) was “Sensitive (sensitive (GI50<=1.0 μM))” and the GI50 (CCK81; Homo sapiens, Colon, PIK3CA MUT) was 0.803 µM. For the same compound, the Category (MKN74) was “Resistant (resistant (GI50>1.0 μM))”, the GI50 (MKN74; Homo sapiens, MKN-74, Stomach, PIK3CA WT) was 30 µM and the Category (H1703) was “Sensitive (sensitive (GI50<=1.0 μM))”. The GI50 (H1703; Homo sapiens, NCI-H1703, Lung, PIK3CA WT) was 0.514 µM, the Category (N87) was “Resistant (resistant (GI50>1.0 μM))” and the GI50 (N87; [2]) was 1.3 µM. The Category (HCC1937) was “Resistant (resistant (GI50>1.0 μM))”, the GI50 (HCC1937; [5]) was 30 µM and the Category (KU1919) was “Resistant (resistant (GI50>1.0 μM))”. For the same compound, the GI50 (KU1919; Homo sapiens, KU-19-19, Bladder, PIK3CA WT) was 30 µM, the Category (REH) was “Resistant (resistant (GI50>1.0 μM))” and the GI50 (REH; [3]) was 1.05 µM. For the same compound, the Category (KP4) was “Resistant (resistant (GI50>1.0 μM))”, the GI50 (KP4; Homo sapiens, KP-4, Pancreas, PIK3CA WT) was 15.1 µM and the Category (PANC1005) was “Resistant (resistant (GI50>1.0 μM))”. The GI50 (PANC1005; [1]) was 2.61 µM, the Category (HLF) was “Resistant (resistant (GI50>1.0 μM))” and the GI50 (HLF; Homo sapiens, Liver, PIK3CA WT) was 30 µM. The Category (MGHU3) was “Resistant (resistant (GI50>1.0 μM))” and the GI50 (MGHU3; [4]) was 11.5 µM.
